Data on two compounds can be found in article PMC12566046, “Arylpiperazinyl-Benzocycloheptapyrrole-Carboxamides Endowed with Dual Anticancer and Antiviral Activities” (Molecules, 2025).

Data set [1] concerns BT-549 (breast cancer cell line). Nature of the data set: NCI-60 single-dose assay. The data set is classed as cell-based, human. As to conditions: Homo sapiens, BT-549, read-out: growth inhibition (GI%) and cytotoxicity (negative values). An excerpt:
(§1) We first evaluated the cytotoxic activity of tricyclic-pyrrole carboxamides 1–20 using the NCI-60 cell line panel, representing nine different human cancers: leukemia, melanoma, and cancers of the lung, colon, central nervous system (CNS), ovary, kidney, prostate, and breast (the one-dose graph for compounds 1–20 is reported in Supplementary Materials, Figures S43–S62). Compounds 1, 5, 10, 11, 17, and 20 satisfied pre-determined threshold inhibition criteria in a minimum number of cell lines; therefore, they were also tested in the full five-dose assay (Figures S63–S68 in the Supplementary Materials).

Data set [2] concerns EKVX (non-small cell lung cancer cell line). Description: NCI-60 single-dose assay. The data set is classed as cell-based, human. As to conditions: Homo sapiens, read-out: growth inhibition (GI%) and cytotoxicity (negative values).
Source text: as §1

Data set [3] has as its system LOX IMVI (melanoma cell line). Description: NCI-60 single-dose assay. Format: cell-based, human. As to conditions: Homo sapiens, LOX IMVI, read-out: growth inhibition (GI%) and cytotoxicity (negative values).
Source text: as §1

The next data set concerns M14 (melanoma cell line). Nature of the data set: NCI-60 single-dose assay. As to conditions: Homo sapiens, M14, read-out: growth inhibition (GI%) and cytotoxicity (negative values). Format: cell-based, human.
Source text: as §1

For data set [4], the system named is MALME-3M (melanoma cell line). Description: NCI-60 single-dose assay. Format: cell-based, human. As to conditions: Homo sapiens, Malme-3M, read-out: growth inhibition (GI%) and cytotoxicity (negative values).
Source text: as §1

In data set [5] the test system is MCF-7 (breast cancer cell line). Nature of the data set: NCI-60 single-dose assay. Format: cell-based, human. As to conditions: Homo sapiens, MCF7, read-out: growth inhibition (GI%) and cytotoxicity (negative values), MCF-7, 10^−5 M.
Source text: as §1

In data set [6] the test system is MDA-MB-231/ATCC (breast cancer cell line). Description: NCI-60 single-dose assay. The data set is classed as cell-based, human. As to conditions: Homo sapiens, MDA-MB-231, read-out: growth inhibition (GI%) and cytotoxicity (negative values).
Source text: as §1

Data set [7] deals with MDA-MB-435 (melanoma cell line). Nature of the data set: NCI-60 single-dose assay. As to conditions: Homo sapiens, MDA-MB-435, read-out: growth inhibition (GI%) and cytotoxicity (negative values). Format: cell-based, human.
Source text: as §1

For data set [8], the system named is MDA-MB-468 (breast cancer cell line). Nature of the data set: NCI-60 single-dose assay. Format: cell-based, human. As to conditions: Homo sapiens, MDA-MB-468, read-out: growth inhibition (GI%) and cytotoxicity (negative values).
Source text: as §1

Data set [9] relates to SK-MEL-2 (melanoma cell line). Nature of the data set: NCI-60 single-dose assay. Format: cell-based, human. To be noted: Homo sapiens, SK-MEL-2, read-out: growth inhibition (GI%) and cytotoxicity (negative values).
Source text: as §1

The subject of data set [10] is SK-MEL-28 (melanoma cell line). Nature of the data set: NCI-60 single-dose assay. As to conditions: Homo sapiens, SK-MEL-28, read-out: growth inhibition (GI%) and cytotoxicity (negative values). The data set is classed as cell-based, human.
Source text: as §1

The test system of data set [11] is SK-MEL-5 (melanoma cell line). Description: NCI-60 single-dose assay. The data set is classed as cell-based, human. As to conditions: human.
Source text: as §1

For data set [12], the system named is T-47D (breast cancer cell line). Nature of the data set: NCI-60 single-dose assay. As to conditions: Homo sapiens, T47D, read-out: growth inhibition (GI%) and cytotoxicity (negative values). The data set is classed as cell-based, human.
Source text: as §1

For data set [13], the system named is UACC-257 (melanoma cell line). Description: NCI-60 single-dose assay. To be noted: Homo sapiens, UACC-257, read-out: growth inhibition (GI%) and cytotoxicity (negative values). Format: cell-based, human.
Source text: as §1

Data set [14] concerns UACC-62 (melanoma cell line). Nature of the data set: NCI-60 single-dose assay. As to conditions: Homo sapiens, UACC-62, read-out: growth inhibition (GI%) and cytotoxicity (negative values). Format: cell-based, human.
Source text: as §1

In a further data set the test system is NCI-60 cell line panel. Nature of the data set: NCI-60 single-dose assay, whole panel. The data set is classed as cell-based, human. As to conditions: summary over the panel.
Source text: as §1

Data set [15] has as its system ZIKV, strain Brazil/2016/INMI1. Nature of the data set: ZIKV viral yield reduction assay on Huh-7 cells. Format: cell-based, Zika virus. As to conditions: for EC50: Zika virus. As for the experimental part:
We developed a protocol to screen the potential antiviral activity of compounds 1–20 against ZIKV (strain Brazil) on Huh-7 cells, against an H1N1 IAV strain (PR/8/1934) on MDCK cells, and against SARS-CoV-2 (strain Milano) on Vero-TMPRSS. Each compound was tested in duplicate at concentrations of 50 μM, 5 μM, and 0.5 μM. Treatment was applied immediately after infection, and at 24–48 h post-infection, supernatants were collected to assess viral yield, determined as PFU/mL for ZIKV and SARS-CoV-2 or as TCID50/mL for IAV. The test allowed us to evaluate both the antiviral action and the cytotoxicity of each compound, comparing them with reference compounds, such as sofosbuvir for ZIKV and EIDD-1931 for IAV and SARS-CoV-2 (Supplementary Materials, Figures S87–S89).
Viral yield reduction assays for ZIKV and SARS-CoV-2 were performed as previously described by Plicanti. Briefly, 1 × 10^4 Huh-7 cells/well and 1.2 × 10^4 VERO TMPRSS cells/well were infected with ZIKV (MOI 1) or SARS-CoV-2 (MOI 0.05) in a primary 96-well plate for 2 h at 37 °C, 5% CO2. […] Supernatants were collected after 48 h (Huh-7) or 24 h (VERO TMPRSS), diluted 3-fold, and added onto VERO E6 or VERO TMPRSS monolayers, respectively. After 2 h at 37 °C, the inoculum was replaced with 0.75% carboxymethyl cellulose (Merck®, Darmstadt, Germany) in DMEM 2% FBS. After 48–72 h, cells were then fixed with 4% buffered formalin solution (Merck®, Darmstadt, Germany) and stained with 1% crystal violet (Merck®, Darmstadt, Germany). Titres and percentage of inhibition were calculated as follows:
PFU/mL = number of plaques*3^n/vol infection, where n is the dilution where plaques were counted:% inhibition = 100 × (1 − Titre-compound/Titre-untreated control) where Titre-compound and Titre-untreated control are the titres (PFU/mL) obtained on cells treated with compound or DMSO, respectively.
SI was obtained by dividing CC50 by EC50 for each drug/virus/cell line. Compounds with SI values ≥ 10 were active in vitro.

Data set [16] relates to IAV strain A/PR/8/34 (H1N1).
Data set [17] is described as follows: in vitro. To be noted: dog.
Data set [18] in a line: in vitro. As to conditions: African green monkey.
Data set [19] concerns IAV strain A/PR/8/34 (H1N1). Nature of the data set: microbe, parasite or virus in culture. To be noted: Influenza A virus, MDCK.
Data set [20] in a line: Cytotoxicity on uninfected MDCK cells (WST-8, crystal violet). To be noted: dog.
Data set [21] is described as follows: Cytotoxicity on uninfected Huh-7 cells (WST-8, crystal violet). As to conditions: human, uninfected Huh-7 cells.
Data set [22] in a line: in vitro. As to conditions: human.

Where two headings read alike, the source gives them in different places.

Usually inhibition stands for the share of the control response that was lost under treatment. On to `O=C(NCCN1CCN(c2ccc(Cl)c(Cl)c2)CC1)c1c(Cl)[nH]c2c1CCCc1ccccc1-2` [Compound 19], for which the inhibition at 10 µM in data set [1] is less than 60%; in [2], 61.7%; in [3], less than 60%; in the data set on M14 (melanoma cell line), less than 60%; in data set [4] it was less than 60%; in data set [5], less than 60%. Moreover, the inhibition at 10 µM was less than 60% in data set [6]; less than 60% in data set [7]; 94.2% in data set [8]; less than 60% in data set [9]; less than 60% in [10]; less than 60% in data set [12]. The inhibition at 10 µM in data set [13] and in data set [14] was less than 60% in each case. For the same compound, the “growth inhibition (GI%) and cytotoxicity (negative values)” value in [11] was −24.28%. The “growth inhibition (GI%) reached against cancer cell lines of the NCI-60 panel” value with NCI-60 cell line panel was more than 90%. Besides, the EC50 in [15] (Huh-7, read-out: ZIKV/Huh‐7 EC50) is 4.08 µM; in data set [19] (48 h) it was 4.31 µM; in [19] (read-out: IAV/MDCK EC50), 4.11 µM. Besides, the “selectivity index (SI)” value in [16] (IAV, MDCK cells, CC50/EC50) is 21.36. Further, in [16] (preliminary screening), the “IAV/MDCK SI” value is listed as less than 12.17. Besides, in “in vitro [17]”, the CC50 was less than 50 µM. This compound also came in with a CC50 at 24 h in “in vitro [18]” of 40.8 µM. For the same compound, the CC50 at 48 h stood at 92.1 µM in [20] and 12 µM in [21].
Turning to `CC(C)OC(=O)[C@H](C)N[P@](=O)(OC[C@H]1O[C@@H](n2ccc(=O)[nH]c2=O)[C@](C)(F)[C@@H]1O)Oc1ccccc1` [sofosbuvir, reference compound], the “selectivity index (SI)” value in data set [15] (ZIKV, Huh-7 cells, CC50/EC50) is 178.32. The EC50 in [15] (ZIKV, Huh-7 cells, 48 h, full dose-response, read-out: EC50) is 1.47 µM; in data set [15] (preliminary screening (50, 5, 0.5 μM), Huh-7, read-out: ZIKV/Huh‐7 EC50), 2.07 µM. In the data set “in vitro [22]”, this compound registered a CC50 of 262 µM. In data set [21], the CC50 at 48 h worked out at 300 µM.
